{"source": "paper PMC3425516", "about": "(PLoS ONE, 2012)", "key": {"[1]": {"tested_on": "human HCT116 colorectal cancer xenograft", "assay": "HCT116 xenograft, tumor growth delay to 1,200 mm^3 endpoint", "format": "in vivo, nude mice", "description": "The human HCT116 colorectal adenocarcinoma cells used for implantation were harvested during log phase growth and resuspended in phosphate-buffered saline at 5×10^7 cells/mL. Each mouse was injected s.c. in the right flank with 1.0×10^7 cells (0.2 mL cell suspension). Tumors were monitored twice weekly and then daily as their volumes approached 1,200 mm^3. Tumor size, in mm^3, was calculated from: where w = width and l = length in mm of the tumor. Tumor volume = (w^2×l)/2.\nThe logrank test was used to determine the statistical significance of the difference between the TTE values of two groups, except any NTR deaths. […] The two-tailed statistical analyses were conducted at P = 0.05. Kaplan-Meier plots show the percentage of animals remaining in the study versus time. The Kaplan-Meier plots use the same data set as the logrank test.\n(§1) Once a tumor was palpable with the size of approximately 55 mm^3, mice were randomized into vehicle control and treatment groups (8 mice per group). Control mice received the vehicle (0.5% carboxymethyl cellulose +0.1% Tween 80). Tumors in all 3 groups were allowed to reach an endpoint volume of 1,200 mm^3."}, "[2]": {"tested_on": "HCT116 cells", "assay": "Sulforhodamine B cell growth assay", "format": "cell-based", "conditions": "Homo sapiens, HCT-116, 48 h", "description": "HCT116, MDAMB231 and NCI-ADR cells were seeded in 96-well plates in medium with 5% fetal bovine serum overnight. Cells were fixed with 10% trichloroacetic representing cell population at the time of drug treatment (T 0). […] Excess Sulforhodamine B was washed away by 1% acetic acid and dye-containing cells were lysed with 10 mmol/L Trizma base. […] By measuring time zero (T 0), control growth (C), and cell growth in the presence of the drug (Tx), the percentage growth was calculated. Percentage growth inhibition was calculated as 100-[(Tx–T 0)/(C-T 0)]×100."}, "[3]": {"tested_on": "HCT116 cells", "assay": "Western blot histone H3 and α-tubulin acetylation", "format": "cell-based, human", "conditions": "24 h", "description": "(§2) For total lysate, cells were lysed with the 120 µL ice-cold lysis buffer [10 mmol/L Tris-HCl (pH 7.4), 150 mmol/L NaCl, 1 mmol/L EGTA, 1 mmol/L phenylmethylsulfonyl fluoride, 10 µg/mL aprotinin, 10 µg/mL leupeptin, 1 mM sodium orthovandate, 1 mM NaF, and 1% Triton X-100]. Cell lysates were centrifuged at 13,000 rpm for 30 min. For Western blot analysis, the amount of protein (40 µg) was separated by electrophoresis in a 10% or 15% polyacrylamide gel and transferred to a polyvinylidene difluoride (PVDF) membrane. After 1 h incubation at room temperature in PBS/5% nonfat milk, the membrane was washed with PBS/0.1% and incubated with the indicated antibodies at 4°C overnight. After washings with PBS/0.1% Tween 20, the corresponding secondary antibodies were applied to the membranes for 1 h at room temperature. The membranes were then washed with PBS/0.1% Tween 20 and the detection of signal was done with an enhanced chemiluminescence detection kit (Amersham, Buckinghamshire, UK)."}, "[4]": {"tested_on": "HCT116 xenograft tumors", "assay": "Western blot of HCT116 xenograft tumor tissues", "format": "in vivo, nude mice", "conditions": "200 mg/kg oral daily for 7 days", "description": "as §2, with “For Western blot analysis, the amount of protein (40 µg) was separated by electrophoresis in a 10% or 15% polyacrylamide gel and transferred to a polyvinylidene difluoride (PVDF) membrane.” left out\nas §1"}, "[5]": {"tested_on": "HCT116 cells", "assay": "Flow cytometry cell cycle / sub-G1 analysis", "format": "cell-based, human", "description": "After centrifugation, cells were incubated in 0.1 mol/L phosphate-citric acid buffer [0.2 mol/L NaHPO4, 0.1 mol/L citric acid (pH 7.8)] for 20 min at room temperature. Then, the cells were centrifuged and resuspended with 0.5 mL PI solution containing Triton X-100 (0.1%, v/v), RNase (100 µg/mL), and PI (80 µg/mL). DNA content was analyzed with the FACScan and CellQuest software (Becton Dickinson)."}, "[6]": {"assay": "Body weight and adverse effects in xenograft study", "format": "in vivo, nude mice", "conditions": "HCT116 xenograft mice, oral daily treatment", "description": "(A) Tumors were measured regularly and growth delay was calculated for treatment groups relative to control tumors (TGD). (B) Kaplan-Meier survival analysis was based on the tumor growth endpoint. (C) Inhibition of tumor growth curves represented a mean±SEM and percentage change in mean tumor volume (percent TGI). (D) Body weights were measured daily during the first week and then 2 times per week. The body weight ratio was calculated relative to the baseline measurement.\nas §1"}}, "note": "“And” between values parts separate entries of the source, which are not always exact repeats. Equal entries are not always repeated."}
{"smiles": "O=C(CCCCCCC(=O)Nc1ccccc1)NO", "note": "[SAHA, suberoylanilide hydroxamic acid, reference compound]", "values": [{"measurement": "Median TTE", "setting": "[1]; 200 mg/kg po qd to endpoint 1200 mm^3", "value": 27.0, "unit": "days"}, {"measurement": "No. of CR (complete regression)", "setting": "[1]; 200 mg/kg po qd, 8 mice per group", "value": 0}, {"measurement": "%TGD (tumor growth delay)", "setting": "[1]; 200 mg/kg po qd, [(T-C)/C]×100", "value": 63, "unit": "%"}, {"measurement": "T-C", "setting": "[1]; 200 mg/kg po qd, median TTE treated versus control", "value": "10.0 days and 10 days"}, {"measurement": "GI50", "setting": "[2]", "value": "820 ± 70", "unit": "nM"}, {"measurement": "α-tubulin acetylation (western blot)", "setting": "[3]", "value": "exhibited more potent α-tubulin acetylation than MPT0E028"}, {"measurement": "expression of caspase 3, PARP, acetyl-histone H3 and acetyl-tubulin in xenograft tumors", "setting": "[4]", "value": "acetyl-µ-tubulin were found more profoundly"}, {"measurement": "sub-G1 population (flow cytometry)", "setting": "[5]", "value": "weaker effect and delayed cytotoxicity"}, {"measurement": "body weight and other adverse effects", "setting": "[6]", "value": "No significant body weight difference or other adverse effects"}]}
